Measured values reported in patent USRE39300E1, “Inhibiting the development of tolerance to and/or dependence on an addictive substance” (Virginia Commonwealth University Medical College of Virginia, priority 1993, dated 2006).

Key:
rats [1] = assay: Health observations (death, grooming, weight loss) during the morphine tolerance experiment; conditions: for overall toxicity: conclusion of Example 4; for rats that died due to drug administration: GM1 or dextrorphan treatment groups; for grooming and weight: ganglioside GM1 or dextrorphan treatment groups
Sprague-Dawley rats [2] = assay: Development of morphine tolerance with systemic treatment, tail-flick test; assay type: in vivo, rat; conditions: for inhibition of the development of morphine tolerance: FIG. 6
rats [3] = assay: Development of morphine tolerance with intrathecal treatment, tail-flick test; assay type: in vivo, rat; conditions: for analgesic effect of morphine (tail-flick latency) on day 8: 100 or 50 nmol intrathecal immediately before each morphine 10 μg; for dose relation of the prevention of morphine tolerance: intrathecal; for prevention of the development of morphine tolerance: intrathecal administration immediately before each once daily intrathecal morphine sulfate 10 μg, FIGS. 7-10
Procedure: Morphine sulfate 10 μg was delivered once daily through an intrathecal (spinal) canula implanted 5 days before the first morphine injection. Ganglioside GM1 or saline also was delivered intrathecally 30 minutes before each morphine injection.
Intrathecal ganglioside GM1 was given 30 min before each morphine administration. […] Vertical bars are standard errors. Maximal possible effects (MPE) were calculated by the formula % MPE=[(TL−BL)/(10−BL)]×100. TL: actual tail-flick latency; BL: baseline latency obtained before the first morphine injection; 10: cut-off time for radiant heat stimulation.
Calmodulin is an intracellular colactor necessary for the nitric oxide pathway that can be initiated upon NMDA receptor activation. […] Each data point in FIGS. 7-10 represents the mean of a group of rats (n=6) and standard errors are shown by vertical lines. The asterisks refer to statistical differences (α=0.05) between the saline group and each other group.

Sprague-Dawley rats [4] = assay: Naloxone-produced jumping (withdrawal symptom) in morphine-treated rats; assay type: in vivo, rat

Compound: C[C@]12N[C@H](Cc3ccccc31)c1ccccc12 [MK 801, 5-methyl-10,11-dihydro-SH-dibenzo[a,d]cyclohepten-5,10-imine]
- rats that died before the completion of the experiment (rats [1]; 0.3 mg/kg, 3 out of 6): 50%
- grooming and weight of the remaining rats (rats [1]; MK 801 0.3 mg/kg): apparently poor grooming and weight loss
- overall toxicity (rats [1]): severe cytotoxic effects
- inhibition of the development of morphine tolerance (Sprague-Dawley rats [2]; MK 801 0.3 mg/kg): inhibited the development of morphine tolerance

Compound: CN1CCN(CCCN2c3ccccc3Sc3ccc(C(F)(F)F)cc32)CC1 [TFP, trifluoperazine]
- analgesic effect of morphine (tail-flick latency) on day 8 (rats [3]): showed a reliable analgesic effect of morphine
- dose relation of the prevention of morphine tolerance (rats [3]): 100=50 nmol>25=12.5 nmol
- prevention of the development of morphine tolerance (rats [3]): effectively prevent the development of morphine tolerance

Compound: Cl.NCCCCCCNS(=O)(=O)c1cccc2c(Cl)cccc12 [W-7, N-(6-aminohexyl)-5-chloro-1-naphthalenesulfonamide hydrochloride]
- analgesic effect of morphine (tail-flick latency) on day 8 (rats [3]): showed a reliable analgesic effect of morphine
- dose relation of the prevention of morphine tolerance (rats [3]): 100=50 nmol>25=12.5 nmol
- prevention of the development of morphine tolerance (rats [3]): effectively prevent the development of morphine tolerance

Compound: CN1CC[C@]23CCCC[C@H]2[C@H]1Cc1ccc(O)cc13 [dextrorphan, (+)-3-hydroxy-N-methylmorphinan]
- incidence of jumping after naloxone 2 mg/kg s.c. (Sprague-Dawley rats [4]; dextrorphan 3.13 and 6.25 mg/kg, morphine 10 mg/kg twice daily for 9 days, vs MOR+SAL, FIG. 2): significantly reduced the incidence of jumping
- rats that died due to drug administration (rats [1]): None
- overall toxicity (rats [1]): nontoxic
- grooming and weight (rats [1]): continued to appear well groomed and did not show weight loss
- analgesic effect of the morphine on coadministration (Sprague-Dawley rats [2]; coadministration of dextrorphan with morphine): remains substantially unaffected
- prevention of the development of morphine tolerance (tail-flick latency) (Sprague-Dawley rats [2]; dextrorphan 1.56, 3.13, 6.25, 12.5 mg/kg i.p. 30 min prior to each morphine 10 mg/kg s.c. twice daily, vs saline control, FIG. 1): potently prevented the development of morphine tolerance

Compound: CN1CC[C@]23c4c5ccc(O)c4O[C@H]2[C@@H](O)C=C[C@H]3[C@H]1C5.O=S(=O)(O)O [morphine, morphine sulfate]
- response to morphine (tolerance), control group (rats [3]; once daily intrathecal morphine 10 μg + saline, Day 8, each tested time point): marked reduction in response to morphine
- tolerance to the analgesic effect (tail-flick latencies vs baseline, day 1) (rats [3]; once daily intrathecal morphine sulfate 10 μg and saline for 7 consecutive days): developed tolerance to the analgesic effect or morphine
- post-drug tail-flick latency scores (Sprague-Dawley rats [2]; measured 1 hour after drug administration, first 5 days of daily administration, morphine 10 mg/kg s.c. twice daily, baseline 4-5 seconds): ~10 s
- response to morphine (tolerance), control group (Sprague-Dawley rats [2]; morphine 10 mg/kg s.c. twice daily + saline, at 7 and 9 days): marked reduction in response to morphine

Compound: ganglioside GM1
- prevention of morphine tolerance (maximal possible effects, % MPE) (rats [3]; intrathecal ganglioside GM1 30 min before each once daily intrathecal morphine 10 μg, Day 8, 15-240 minutes after morphine, vs saline, FIG. 5): effectively prevented the development of morphine tolerance
- order of doses, maximal possible analgesia effects of morphine (rats [3]; intrathecal ganglioside GM1, Day 8): 160 nmol>80=40 nmol
- number of jumps after naloxone 2 mg/kg s.c. (Sprague-Dawley rats [4]; GM1 10, 30 and 60 mg/kg systemic, morphine 10 mg/kg twice daily for 9 days, vs MOR+SAL, FIG. 4): effective
- most effective dose tested against naloxone-produced jumping (Sprague-Dawley rats [4]; GM1 systemic, doses 10, 30, 60 mg/kg): 60 mg/kg
- rats that died due to drug administration (rats [1]): None
- overall toxicity (rats [1]): nontoxic
- grooming and weight (rats [1]): continued to appear well groomed and did not show weight loss
- inhibition of the development of morphine tolerance (Sprague-Dawley rats [2]; ganglioside GM1 60 mg/kg): inhibited the development of morphine tolerance to the degree equivalent to that induced by 0.3 mg/kg MK 801
- tail flick latency versus saline-treated rats (Sprague-Dawley rats [2]; ganglioside GM1 10, 30, 60 mg/kg systemic, 1 hour before each morphine, days 5, 7, 9 and 10 of repeated morphine, FIG. 3): remained significantly longer than that of saline-treated rats
- comparison of doses for prevention of morphine tolerance (Sprague-Dawley rats [2]; ganglioside GM1 systemic, 10, 30, 60 mg/kg, FIG. 3): 30 and 60 mg/kg were more effective at days 9 and 10 than 10 mg/kg
